# In ChEMBL document CHEMBL4507279, “Data for DCP probe BI-9627” (2021):
# Key:
# [1] = molecular target: Alpha-1B adrenergic receptor (Homo sapiens) (UniProt P35368); settings: Compound concentration 10.0 uM
# [2] = molecular target: Mitogen-activated protein kinase 11 (Homo sapiens) (UniProt Q15759); settings: Compound concentration 1000.0 nM
# [3] = system: Proto-oncogene tyrosine-protein kinase receptor Ret (Homo sapiens), P07949 [M918T]; settings: Compound concentration 1000.0 nM
# [4] = molecular target: Nicotinic acetylcholine receptor alpha-1/beta-1 (Homo sapiens) (UniProt P02708+P11230); experiment: NACH_BS_N/H Eurofins-Panlabs selectivity data (BI); type: protein-complex assay; settings: Compound concentration 10.0 uM
# [5] = molecular target: Muscarinic acetylcholine receptor M3 (Homo sapiens) (UniProt P20309); experiment: M3/HU Eurofins-Panlabs selectivity data (BI); settings: Compound concentration 10.0 uM
# [6] = molecular target: Glucocorticoid receptor (Homo sapiens) (UniProt P04150); experiment: GLUCOCORTICO Eurofins-Panlabs selectivity data (BI); settings: Compound concentration 10.0 uM
# [7] = molecular target: Histamine H1 receptor (Homo sapiens) (UniProt P35367); experiment: H1/H Eurofins-Panlabs selectivity data (BI); settings: Compound concentration 10.0 uM
# [8] = molecular target: Neuropeptide Y receptor type 1 (Homo sapiens) (UniProt P25929); experiment: Y1/HU Eurofins-Panlabs selectivity data (BI); settings: Compound concentration 10.0 uM
# [9] = molecular target: 5-hydroxytryptamine receptor 5A (Homo sapiens) (UniProt P47898); settings: Compound concentration 10.0 uM
# [10] = molecular target: Glutamate receptor ionotropic, kainate 1 (Rattus norvegicus) (UniProt P22756); settings: Compound concentration 10.0 uM
# [11] = molecular target: Kappa-type opioid receptor (Homo sapiens) (UniProt P41145); experiment: KAPPA/HU Eurofins-Panlabs selectivity data (BI); settings: Compound concentration 10.0 uM
# [12] = molecular target: Glutamate NMDA receptor (Rattus norvegicus) (UniProt P35439+Q00959+Q00960+Q00961+Q62645+Q8VHN2+Q9R1M7); experiment: NMDAAGSI/RA Eurofins-Panlabs selectivity data (BI); type: protein-complex assay; settings: filed as agonist, Compound concentration 10.0 uM
# [13] = molecular target: 5-hydroxytryptamine receptor 1E (Homo sapiens) (UniProt P28566); settings: Compound concentration 10.0 uM
# [14] = molecular target: Gamma-aminobutyric acid type B receptor subunit 1 (Homo sapiens) (UniProt Q9UBS5); experiment: GABA_B1A Eurofins-Panlabs selectivity data (BI); settings: Compound concentration 10.0 uM
# [15] = molecular target: T1, 5-hydroxytryptamine receptor 3A (Homo sapiens) (UniProt P46098); experiment: 5HT3/HU Eurofins-Panlabs selectivity data (BI); settings: Compound concentration 10.0 uM
# T1 sequence (whole entry): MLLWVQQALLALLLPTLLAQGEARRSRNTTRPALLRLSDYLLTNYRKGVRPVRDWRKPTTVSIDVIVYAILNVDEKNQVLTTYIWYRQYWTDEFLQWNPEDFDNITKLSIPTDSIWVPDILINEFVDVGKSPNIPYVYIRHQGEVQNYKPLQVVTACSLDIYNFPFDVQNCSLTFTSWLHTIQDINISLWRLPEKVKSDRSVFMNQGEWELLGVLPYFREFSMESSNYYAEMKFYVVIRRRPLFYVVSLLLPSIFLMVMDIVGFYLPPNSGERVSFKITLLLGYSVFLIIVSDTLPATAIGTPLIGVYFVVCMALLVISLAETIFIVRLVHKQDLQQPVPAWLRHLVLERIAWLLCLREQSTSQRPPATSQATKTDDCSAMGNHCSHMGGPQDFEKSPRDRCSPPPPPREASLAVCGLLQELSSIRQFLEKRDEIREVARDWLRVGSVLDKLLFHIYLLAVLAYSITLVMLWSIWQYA
# [16] = molecular target: hERG (voltage-gated inwardly rectifying potassium channel KCNH2) (Homo sapiens, UniProt Q12809); experiment: K+/HERG Eurofins-Panlabs selectivity data (BI); settings: compound concentration 10 uM, read-out: % Ctrl
# [17] = molecular target: B2 bradykinin receptor (Homo sapiens) (UniProt P30411); experiment: B2/HU Eurofins-Panlabs selectivity data (BI); settings: Compound concentration 10.0 uM
# [18] = molecular target: T2, Alpha-1D adrenergic receptor (Homo sapiens) (UniProt P25100); experiment: ALPHA1D/H Eurofins-Panlabs selectivity data (BI); settings: Compound concentration 10.0 uM
# T2 sequence (whole entry): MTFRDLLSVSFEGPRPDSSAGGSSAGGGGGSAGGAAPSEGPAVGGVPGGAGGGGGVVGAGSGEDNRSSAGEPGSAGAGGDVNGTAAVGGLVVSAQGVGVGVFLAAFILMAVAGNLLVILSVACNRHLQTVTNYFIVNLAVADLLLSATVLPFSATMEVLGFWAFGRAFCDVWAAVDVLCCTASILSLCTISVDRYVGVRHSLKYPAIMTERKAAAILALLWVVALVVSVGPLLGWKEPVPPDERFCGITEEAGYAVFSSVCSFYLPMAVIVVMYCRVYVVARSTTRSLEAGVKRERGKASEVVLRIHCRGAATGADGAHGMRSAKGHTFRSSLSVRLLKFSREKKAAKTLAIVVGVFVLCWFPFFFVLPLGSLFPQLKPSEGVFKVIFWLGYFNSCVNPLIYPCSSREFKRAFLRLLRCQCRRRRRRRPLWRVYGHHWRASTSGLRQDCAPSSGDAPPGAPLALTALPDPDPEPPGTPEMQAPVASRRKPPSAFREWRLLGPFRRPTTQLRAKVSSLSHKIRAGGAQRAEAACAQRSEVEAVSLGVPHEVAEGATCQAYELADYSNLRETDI
# [19] = molecular target: 5-hydroxytryptamine receptor 1A (Homo sapiens) (UniProt P08908); settings: Compound concentration 10.0 uM
# [20] = molecular target: Beta-2 adrenergic receptor (Homo sapiens) (UniProt P07550); settings: Compound concentration 10.0 uM
# [21] = molecular target: Adenosine receptor A2a (Homo sapiens) (UniProt P29274); experiment: A2A/HU Eurofins-Panlabs selectivity data (BI); settings: Compound concentration 10.0 uM
# [22] = molecular target: Voltage-dependent N-type calcium channel subunit alpha-1B (Rattus norvegicus) (UniProt Q02294); experiment: CA+/N/RA Eurofins-Panlabs selectivity data (BI); settings: Compound concentration 10.0 uM
# [23] = molecular target: Alpha-1B adrenergic receptor (Homo sapiens) (UniProt P35368); experiment: ALPHA1B/R Eurofins-Panlabs selectivity data (BI); settings: Rattus norvegicus; Compound concentration 10.0 uM
# Chain of Alpha-1B adrenergic receptor (Homo sapiens) (P35368 whole entry): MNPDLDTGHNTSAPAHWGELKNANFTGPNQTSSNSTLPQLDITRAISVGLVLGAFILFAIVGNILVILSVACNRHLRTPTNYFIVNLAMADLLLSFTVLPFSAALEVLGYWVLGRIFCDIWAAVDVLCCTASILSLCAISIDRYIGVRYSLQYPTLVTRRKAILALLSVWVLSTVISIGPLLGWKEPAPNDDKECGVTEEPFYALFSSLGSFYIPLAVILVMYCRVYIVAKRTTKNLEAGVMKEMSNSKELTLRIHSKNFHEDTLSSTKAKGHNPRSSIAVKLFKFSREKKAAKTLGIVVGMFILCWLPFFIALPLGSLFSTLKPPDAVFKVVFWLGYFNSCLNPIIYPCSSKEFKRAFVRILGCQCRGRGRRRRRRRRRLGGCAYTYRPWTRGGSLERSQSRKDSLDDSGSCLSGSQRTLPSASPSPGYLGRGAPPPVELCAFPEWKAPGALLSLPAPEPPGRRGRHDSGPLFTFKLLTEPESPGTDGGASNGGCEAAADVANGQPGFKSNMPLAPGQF
# Chain of Voltage-dependent N-type calcium channel subunit alpha-1B (Rattus norvegicus) (Q02294 whole entry, looked up): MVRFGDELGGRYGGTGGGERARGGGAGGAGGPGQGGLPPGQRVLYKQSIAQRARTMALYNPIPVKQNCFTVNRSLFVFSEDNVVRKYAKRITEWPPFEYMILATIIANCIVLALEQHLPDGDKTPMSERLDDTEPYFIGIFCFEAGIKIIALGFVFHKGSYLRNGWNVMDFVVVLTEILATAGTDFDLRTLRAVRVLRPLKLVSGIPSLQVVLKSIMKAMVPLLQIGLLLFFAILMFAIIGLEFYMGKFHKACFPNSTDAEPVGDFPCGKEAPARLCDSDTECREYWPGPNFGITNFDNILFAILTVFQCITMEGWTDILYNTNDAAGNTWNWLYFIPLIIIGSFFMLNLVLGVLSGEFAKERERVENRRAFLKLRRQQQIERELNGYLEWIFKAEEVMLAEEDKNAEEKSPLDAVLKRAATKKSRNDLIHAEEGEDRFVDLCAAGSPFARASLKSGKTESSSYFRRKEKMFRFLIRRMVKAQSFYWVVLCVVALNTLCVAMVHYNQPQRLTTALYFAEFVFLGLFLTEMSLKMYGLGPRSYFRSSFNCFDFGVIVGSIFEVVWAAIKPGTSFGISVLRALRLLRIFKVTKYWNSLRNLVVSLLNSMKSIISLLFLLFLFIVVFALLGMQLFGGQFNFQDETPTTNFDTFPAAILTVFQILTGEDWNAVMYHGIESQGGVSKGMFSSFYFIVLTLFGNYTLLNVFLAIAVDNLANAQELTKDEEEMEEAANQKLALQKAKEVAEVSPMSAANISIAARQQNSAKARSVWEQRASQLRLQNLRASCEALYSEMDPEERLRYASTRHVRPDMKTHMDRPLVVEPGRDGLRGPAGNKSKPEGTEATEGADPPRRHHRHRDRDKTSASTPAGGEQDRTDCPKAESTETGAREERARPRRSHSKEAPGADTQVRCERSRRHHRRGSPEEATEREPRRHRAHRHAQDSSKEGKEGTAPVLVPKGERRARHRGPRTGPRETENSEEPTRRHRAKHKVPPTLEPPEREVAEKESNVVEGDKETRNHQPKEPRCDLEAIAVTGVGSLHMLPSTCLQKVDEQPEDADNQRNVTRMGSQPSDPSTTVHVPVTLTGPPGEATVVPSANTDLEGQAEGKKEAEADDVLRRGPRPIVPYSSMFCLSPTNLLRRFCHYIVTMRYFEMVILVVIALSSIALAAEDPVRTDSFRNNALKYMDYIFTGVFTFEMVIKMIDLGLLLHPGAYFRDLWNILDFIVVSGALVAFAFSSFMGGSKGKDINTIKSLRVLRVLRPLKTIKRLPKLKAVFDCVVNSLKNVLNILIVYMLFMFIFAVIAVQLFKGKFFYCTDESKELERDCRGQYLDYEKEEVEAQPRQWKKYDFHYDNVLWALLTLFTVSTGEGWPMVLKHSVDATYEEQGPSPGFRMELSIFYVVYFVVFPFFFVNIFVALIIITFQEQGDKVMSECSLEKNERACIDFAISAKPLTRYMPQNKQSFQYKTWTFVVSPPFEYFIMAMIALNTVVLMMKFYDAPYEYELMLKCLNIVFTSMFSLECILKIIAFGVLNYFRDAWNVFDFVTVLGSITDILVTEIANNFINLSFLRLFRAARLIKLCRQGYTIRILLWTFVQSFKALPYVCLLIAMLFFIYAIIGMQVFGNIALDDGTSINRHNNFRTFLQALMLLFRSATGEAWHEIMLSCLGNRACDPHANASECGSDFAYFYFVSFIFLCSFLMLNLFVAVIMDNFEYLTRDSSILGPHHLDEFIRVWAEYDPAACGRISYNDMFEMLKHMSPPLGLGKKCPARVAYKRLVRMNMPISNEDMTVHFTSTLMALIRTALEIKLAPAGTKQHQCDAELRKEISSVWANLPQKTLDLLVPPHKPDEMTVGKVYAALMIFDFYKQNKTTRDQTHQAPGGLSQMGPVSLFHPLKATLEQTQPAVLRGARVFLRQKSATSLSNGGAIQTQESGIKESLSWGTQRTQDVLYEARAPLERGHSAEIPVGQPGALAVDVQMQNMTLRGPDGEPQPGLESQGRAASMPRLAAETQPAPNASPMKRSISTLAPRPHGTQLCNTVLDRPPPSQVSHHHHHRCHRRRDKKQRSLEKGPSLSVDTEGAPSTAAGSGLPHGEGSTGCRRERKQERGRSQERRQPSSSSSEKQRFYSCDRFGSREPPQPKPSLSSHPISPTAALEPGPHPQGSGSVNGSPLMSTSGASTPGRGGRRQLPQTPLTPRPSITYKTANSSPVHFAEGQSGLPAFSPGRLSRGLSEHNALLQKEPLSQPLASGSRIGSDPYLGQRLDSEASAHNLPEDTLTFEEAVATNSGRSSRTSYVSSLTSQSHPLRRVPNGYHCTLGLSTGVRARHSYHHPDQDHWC
# Chain of Glutamate receptor ionotropic, kainate 1 (Rattus norvegicus) (P22756 whole entry): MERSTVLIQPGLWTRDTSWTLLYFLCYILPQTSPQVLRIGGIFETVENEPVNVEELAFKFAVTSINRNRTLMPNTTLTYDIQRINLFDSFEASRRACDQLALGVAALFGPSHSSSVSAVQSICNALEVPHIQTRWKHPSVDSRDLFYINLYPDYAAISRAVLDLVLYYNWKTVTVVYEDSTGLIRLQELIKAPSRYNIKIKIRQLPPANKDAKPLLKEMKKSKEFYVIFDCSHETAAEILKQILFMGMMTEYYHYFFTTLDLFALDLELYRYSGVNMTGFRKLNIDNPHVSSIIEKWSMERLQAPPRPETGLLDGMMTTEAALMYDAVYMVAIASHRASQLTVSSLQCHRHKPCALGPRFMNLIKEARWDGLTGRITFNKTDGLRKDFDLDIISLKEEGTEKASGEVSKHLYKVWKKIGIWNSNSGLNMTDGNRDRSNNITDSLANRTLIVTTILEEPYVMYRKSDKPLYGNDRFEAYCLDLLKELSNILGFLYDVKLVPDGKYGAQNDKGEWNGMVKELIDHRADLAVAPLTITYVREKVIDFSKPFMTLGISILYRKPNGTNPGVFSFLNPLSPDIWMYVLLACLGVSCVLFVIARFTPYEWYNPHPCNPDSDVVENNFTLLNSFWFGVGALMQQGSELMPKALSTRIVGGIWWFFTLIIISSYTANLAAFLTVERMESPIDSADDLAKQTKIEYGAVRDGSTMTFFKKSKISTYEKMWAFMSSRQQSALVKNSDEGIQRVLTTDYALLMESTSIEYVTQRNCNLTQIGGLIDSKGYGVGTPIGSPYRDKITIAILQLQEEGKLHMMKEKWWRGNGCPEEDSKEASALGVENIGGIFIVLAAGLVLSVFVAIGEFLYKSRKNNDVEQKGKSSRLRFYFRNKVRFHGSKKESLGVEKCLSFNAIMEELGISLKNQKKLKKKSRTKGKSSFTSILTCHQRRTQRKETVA
# Chain of Adenosine receptor A2a (Homo sapiens) (P29274 whole entry): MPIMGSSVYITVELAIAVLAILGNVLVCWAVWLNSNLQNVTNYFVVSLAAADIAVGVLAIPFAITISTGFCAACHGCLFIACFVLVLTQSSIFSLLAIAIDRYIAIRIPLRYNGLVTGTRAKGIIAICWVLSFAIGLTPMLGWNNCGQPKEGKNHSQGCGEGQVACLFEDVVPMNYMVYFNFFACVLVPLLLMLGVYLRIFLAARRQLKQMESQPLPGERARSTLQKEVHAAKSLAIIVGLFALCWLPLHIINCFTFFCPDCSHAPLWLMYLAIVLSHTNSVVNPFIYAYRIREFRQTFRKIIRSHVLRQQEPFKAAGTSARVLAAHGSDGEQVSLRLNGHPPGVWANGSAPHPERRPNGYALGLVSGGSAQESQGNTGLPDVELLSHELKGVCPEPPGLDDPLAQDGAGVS
# Chain of Beta-2 adrenergic receptor (Homo sapiens) (P07550 whole entry, looked up): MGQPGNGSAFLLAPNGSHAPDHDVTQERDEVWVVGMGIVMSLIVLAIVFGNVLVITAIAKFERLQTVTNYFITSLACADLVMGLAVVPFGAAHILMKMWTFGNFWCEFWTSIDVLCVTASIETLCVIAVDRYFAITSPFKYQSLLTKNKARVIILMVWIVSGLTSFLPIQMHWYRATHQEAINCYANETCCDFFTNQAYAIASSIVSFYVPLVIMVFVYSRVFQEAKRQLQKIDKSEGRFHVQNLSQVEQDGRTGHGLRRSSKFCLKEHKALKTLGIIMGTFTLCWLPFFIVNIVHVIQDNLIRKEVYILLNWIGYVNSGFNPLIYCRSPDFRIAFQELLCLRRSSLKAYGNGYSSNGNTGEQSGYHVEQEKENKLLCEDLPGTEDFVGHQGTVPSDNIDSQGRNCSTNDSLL
# Chain of Kappa-type opioid receptor (Homo sapiens) (P41145 whole entry): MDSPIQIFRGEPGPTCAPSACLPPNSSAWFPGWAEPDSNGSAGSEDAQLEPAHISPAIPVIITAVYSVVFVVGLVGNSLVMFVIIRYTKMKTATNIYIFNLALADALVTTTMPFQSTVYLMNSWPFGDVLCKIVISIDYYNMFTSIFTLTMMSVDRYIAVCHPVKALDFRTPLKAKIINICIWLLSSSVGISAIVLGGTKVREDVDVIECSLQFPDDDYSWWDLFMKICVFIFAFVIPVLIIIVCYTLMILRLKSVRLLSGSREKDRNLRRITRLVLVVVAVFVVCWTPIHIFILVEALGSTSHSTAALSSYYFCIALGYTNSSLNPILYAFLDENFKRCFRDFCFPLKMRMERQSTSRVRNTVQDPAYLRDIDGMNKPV
smiles,measurement,setting,value
CC(=O)N1CCC(c2ccc(C(=O)NC3=NCCN3)cc2C(F)(F)F)CC1 [BI 0054],inhibition,[1],-0.596%
same,residual activity,[2],98%
same,residual activity,[3],90%
CC(=O)N1CCC(c2ccc(C(=O)NC(=N)N)cc2C(F)(F)F)CC1 [BI 9627],residual activity,[4],100%
same,residual activity,[5],79%
same,residual activity,[6],98%
same,residual activity,[7],98%
same,residual activity,[8],94%
same,inhibition,[9],-4.89%
same,residual activity,[10],96%
same,residual activity,[11],74%
same,residual activity,[12],90%
same,inhibition,[13],-9.59%
same,residual activity,[14],103%
same,residual activity,[15],98%
same,activity at 10 µM,[16],105% (not active)
same,residual activity,[17],105%
same,residual activity,[18],98%
same,inhibition,[19],-5.21%
same,inhibition,[20],-9.75%
same,residual activity,[21],86%
same,residual activity,[22],98%
same,residual activity,[23],95%
